Experimental data published in PubChem BioAssay AID1996.
≈ marks a conversion by molar mass, not a printed value.

settings: buffer; pH 7.4; 200.0 µM

Compared with `Nc1nc(NCCOCCO)nc(N2CCCCCC2)c1[N+](=O)[O-]`, `COc1ccc(/C=C2\SC(N3CCCCC3)=NC2=O)cc1OC` is 5.8-fold lower in solubility kinetic: 47.4 µg/mL (≈ 139 µM) for the first, 8.2 µg/mL (≈ 24.7 µM) for the second.

Going from `Cc1ccc(NC2CCCN(C(=O)c3cccs3)C2)cc1C` (stereo not given) to `O=C(NC1CCCC1)c1cc(-c2ccc(Cl)cc2)on1`, the solubility kinetic falls from 47.1 µg/mL (≈ 150 µM) to < 0.3 µg/mL.

Compared with `NC(=O)c1ccc(=O)n(Cc2ccc(Cl)cc2Cl)c1`, `Nc1ccc(C(=O)CC(=O)Nc2ccc(Cl)cc2)cc1` is lower in solubility kinetic: > 44.6 µg/mL for the first, 14.3 µg/mL (≈ 49.5 µM) for the second.

Compared with `O/N=C/c1nc2cc(Cl)ccc2o1`, `CCc1cccc(C)c1N=Cc1c(O)c2ccccc2oc1=O` is lower in solubility kinetic: > 29.5 µg/mL for the first, 0.9 µg/mL (≈ 2.93 µM) for the second.

`O=C(NC(=S)N1CCCCCC1)c1ccccc1` and `O=C(CCNC(=O)c1ccccc1)NCC1CCCCC1` cannot be ordered by solubility kinetic: > 39.4 µg/mL for the first, > 43.3 µg/mL for the second.

`CCOC(=O)C1=C(COC(=O)c2ccco2)NC(=O)NC1CC` (stereo not given) and `Cc1cnc(C(=O)OCC(=O)N(Cc2ccccc2)C(C)(C)C)cn1` cannot be ordered by solubility kinetic: > 48.3 µg/mL for the first, > 51.2 µg/mL for the second.

`COc1cccc(C(=O)N2CCC(C(=O)NCc3ccco3)CC2)c1` and `CS(=O)(=O)N1CCC(C(=O)Nc2cccc(F)c2)CC1` cannot be ordered by solubility kinetic: 50.6 µg/mL (≈ 148 µM) for the first, > 45.1 µg/mL for the second.

Compared with `CN(C)c1ccc(C(=O)OCC(=O)NC2CCCCCC2)cc1`, `COc1ccc(C(C)=O)cc1CC(=O)NC1CCCCCC1` is 14-fold higher in solubility kinetic: 2.8 µg/mL (≈ 8.79 µM) for the first, 39.2 µg/mL (≈ 129 µM) for the second.

`O=C(Nc1cccc(C(=O)NC2CCCCC2)c1)c1ccccc1` and `Cc1ccc(C(=O)Nc2ccc(Nc3ccccc3)cc2)cc1C` are within 1.5-fold of each other in solubility kinetic: 2.8 µg/mL (≈ 8.68 µM) for the first, 2.3 µg/mL (≈ 7.27 µM) for the second.

First: Cc1cccc2cc(C#N)c(N3CCOCC3)nc12
Second: Cc1ccc(NC(=O)CN2CCOCC2)c(Br)c1
The solubility kinetic of the first is lower: 1.7 µg/mL (≈ 6.71 µM) for the first, > 47 µg/mL for the second.

`O=C1NC(=O)C(=Cc2ccsc2)C(=O)N1` and `CC(C)c1ccc(N2C(=O)CC(=O)NC2=O)cc1` cannot be ordered by solubility kinetic: > 33.3 µg/mL for the first, 34.4 µg/mL (≈ 140 µM) for the second.

Going from `Cc1cccc2sc(NC(=O)CCn3cccc3)nc12` to `COc1ccc(NC(=O)c2sccc2-n2cccc2)cc1`, the solubility kinetic falls from 5.7 µg/mL (≈ 20 µM) to 3.4 µg/mL (≈ 11.4 µM) (1.7-fold).

Compared with `Br.Cc1ccc(C(=O)Cn2c(=N)n(N)c3ccccc32)cc1`, `O=C(O)CCc1ccc(-c2ccccc2)n1-c1ccc(C(=O)O)cc1` is lower in solubility kinetic: > 54.2 µg/mL for the first, 47 µg/mL (≈ 140 µM) for the second.

First: O=C(Cc1ccccc1)Nc1ccc(NC(=O)c2cccnc2)cc1
Second: COc1ccccc1CNC(=O)c1cc(-c2cccnc2)nc2ccccc12
The solubility kinetic of the first is 4.6-fold higher: 3.2 µg/mL (≈ 9.66 µM) for the first, 0.7 µg/mL (≈ 1.89 µM) for the second.

First: COc1cc(C)c(Cl)cc1S(=O)(=O)NCc1ccccn1
Second: O=C(O)CCn1c(-c2ccccn2)nc2ccccc21
The solubility kinetic of the first is lower: 34.5 µg/mL (≈ 106 µM) for the first, > 40.1 µg/mL for the second.

Going from `O=C(COc1ccccc1[N+](=O)[O-])Nc1cccc(S(=O)(=O)N2CCCC2)c1` to `N#CCCN(C(=O)COC(=O)c1ccc(S(=O)(=O)N2CCOCC2)cc1)c1ccccc1`, the solubility kinetic rises from 3.5 µg/mL (≈ 8.63 µM) to 8.2 µg/mL (≈ 17.9 µM) (2.3-fold).

`Cc1ccc(-c2nc(CN3CCN(c4cnccn4)CC3)c(C)o2)o1` and `CC1(C(=O)N2CCN(c3ccccc3)CC2)CC1(Cl)Cl` (stereo not given) are within 1.5-fold of each other in solubility kinetic: 38.3 µg/mL (≈ 113 µM) for the first, 46.8 µg/mL (≈ 149 µM) for the second.

`COc1ccc(CNC(=O)COC(=O)c2cc(S(=O)(=O)N3CCOCC3)ccc2O)cc1OC` and `O=C(COc1ccccc1O)NCCN1CCOCC1` cannot be ordered by solubility kinetic: > 74.2 µg/mL for the first, > 42 µg/mL for the second.

Compared with `COc1ccc(N(CC(=O)Nc2cccnc2)S(C)(=O)=O)cc1`, `COC(=O)c1sccc1NC(=O)COc1cccc(C)c1` is lower in solubility kinetic: > 50.3 µg/mL for the first, < 0.7 µg/mL for the second.

Compared with `NC(=O)c1cn(C2CCCCC2)c2ccccc2c1=O`, `COc1ccc2oc(=O)c(C(=O)NC3CCCCCC3)cc2c1` is lower in solubility kinetic: > 40.5 µg/mL for the first, 2.6 µg/mL (≈ 8.24 µM) for the second.

First: Cc1cc(C)c2nc(N(CCN(C)C)C(=O)/C=C/c3cccs3)sc2c1.Cl
Second: Cc1csc(=O)n1CC(=O)Nc1ccc(C(C)C)cc1
The solubility kinetic of the first is 33-fold lower: 0.9 µg/mL for the first, 29.4 µg/mL (≈ 101 µM) for the second.

First: O=C(NCCCNC(=O)c1cnccn1)c1cccc(F)c1
Second: O=C(COc1ccccc1)N1CCN=C1SCc1ccc(F)cc1
The solubility kinetic of the first is 6.3-fold higher: 40.2 µg/mL (≈ 133 µM) for the first, 6.4 µg/mL (≈ 18.6 µM) for the second.

Going from `O=S(=O)(c1ccc2ccccc2c1)N1CCc2ccccc21` to `O=c1[nH]c2ccc([N+](=O)[O-])cc2nc1/C=C(\O)c1ccccc1`, the solubility kinetic rises from < 0.7 µg/mL to 2.3 µg/mL (≈ 7.44 µM).

`CC(C)(C)NC(=O)COc1ccc2oc3c(c2c1)CCCC3` and `COc1ccc(OC)c(NC(=O)NC2CCCCCCC2)c1` are the same in solubility kinetic: 2.2 µg/mL (≈ 7.3 µM) for the first, 2.2 µg/mL (≈ 7.18 µM) for the second.

Going from `Nc1[nH]c2cc([N+](=O)[O-])ccc2c1-c1ccccn1` to `Nc1ccc(Sc2ccccc2)nc1`, the solubility kinetic rises from 1.4 µg/mL (≈ 5.51 µM) to > 30.3 µg/mL.

First: CCC(C)(NC(=O)c1ccccn1)C(=O)NC1CCCC1 (stereo not given)
Second: Nc1ccc2nc(NC(=O)C3CCCCC3)sc2c1
The solubility kinetic of the first is higher: > 43.4 µg/mL for the first, 30.2 µg/mL (≈ 110 µM) for the second.

`CCCCOCCCNC(=O)N[C@H](C(=O)OC)C(C)CC` (stereo not given in full) and `COCCCNC(=O)C1CC(=O)N(CCc2ccc(F)cc2)C1` (stereo not given) cannot be ordered by solubility kinetic: > 45.4 µg/mL for the first, > 48.4 µg/mL for the second.

`C(=N\NC1=NCCN1)/c1ccncc1.Cl` and `O=S(=O)(NC1=NCCCCC1)c1ccc(Cl)cc1` cannot be ordered by solubility kinetic: > 39.3 µg/mL for the first, > 43 µg/mL for the second.

Compared with `Nc1cc(C(F)(F)F)ccc1OCC1CCCO1` (stereo not given), `COc1ccc(/C=C/C(=O)OCC(=O)NC2CC2)c(OC)c1` is higher in solubility kinetic: 32.8 µg/mL (≈ 126 µM) for the first, > 45.8 µg/mL for the second.

`CC(=O)N1CCN(C(=O)c2ccco2)CC1` and `CC(C)n1c(SCC(=O)NC2CC2)nnc1C1CC1` cannot be ordered by solubility kinetic: > 33.3 µg/mL for the first, > 42.1 µg/mL for the second.
